# Reference: patent US4024276A, “Xanthone-2-carboxylic acid compounds” (Roussel-UCLAF, priority 1974, dated 1977)
# Test system: cutaneous anaphylaxis
# Test: Passive cutaneous anaphylaxis in rats (method of Ovary), anti-allergic activity
# Assay type: in vivo, rat
# Conditions: Rattus norvegicus; male rats 180-220 g; intravenous, followed immediately by antigen/Evans blue challenge; anti-ovalbumin antiserum ID 3 days before; compounds used as tris(hydroxymethyl)methylamine salts; read-out: ED50 (dose of drug giving 50% inhibition)
# Method: Evans blue dye was injected with the antigen to act as a marker to assess the severity of the local response which is inhibited by anti-allergic compounds. Groups of 7 male rats weighing 180 to 220 g were used in this test.
# Preparation of antigen for sensitization (such as alum precipitated ovalbumin) was effected by washing 120 grams of Al(OH)3 gel in 140 mls of saline solution (use of a macerator facilitates mixing). Then, the product was centrifuged at 3,000 r.p.m. for about 10 minutes and the precipitate was responded with 300 mls of albumin egg powder (1.3 mg/ml) in saline solution and allowed to stand for 30 minutes. Then, the mixture was centrifuged at 3,000 r.p.m. for 10 minutes and the wet precipitate was weighed and to each gram weight 1 ml of saline solution was added. The antigen was stored in the refrigerator and was a quantity sufficient for 60 rats for a 3 day sensitization program.
# Preparation of antiserum (such as anti-ovalbumin) was effected by injecting 1 ml of the alum precipitated ovalbumin subcutaneously into the rats on days 0, 2 and 4. The rats were bled on day 14 either by cardiac puncture or via the dorsal abdominal aorta and equal quantities of serum from each animal were pooled and thoroughly mixed. 2 ml aliquots were stored at -20° C in plastic tubes.
# For sensitization, rats were anaesthetized with Nembutal (40-60 mg/kg i.p.) and were then sensitized by four ID injections (0.1 ml each) on their shaved backs. The animals were then left for a period of three days to develop sensitization.
# For the challenge, the sensitized rats were anaesthetized and challenged intravenously via the superficial penile vein with the anti-allergic compound, followed immediately by 1 ml of an antigen/Evans blue mixture (1 mg albumin egg powder in 0.5 ml saline solution plus 0.5 ml of 1% Evans blue). The injections were speeded up by using an automatic 1 ml self filling glass syringe. The "challenged" rats were killed after 30 minutes and their skin on the dorsal surface was removed. The degree and area of blueing, proportional to the anaphylactic reaction, was assessed on a four point scoring system as follows:
# 1. Total scores for sites, 1, 2, 3 and 4 = X
# 2. Mean value of X for each group = X
# 3. X t = X for test group X c = X for control group [formula]
row,Structure (SMILES),ED50 [mg/kg]
1,CS(=O)(=NC(=O)c1ccccc1)c1ccc2oc3ccc(C(=O)O)cc3c(=O)c2c1 (stereo not shown) [7-(N-benzoyl-S-methylsulfonimidoyl)-xanthone-2-carboxylic acid],0.68
2,Cc1ccc(S(=O)(=O)N=S(C)c2ccc3oc4ccc(C(=O)O)cc4c(=O)c3c2)cc1 (stereo not shown) [7-[N-(p-toluenesulfonyl)-S-methylsulfimidoyl]-xanthone-2-carboxylic acid],0.43
3,CCCCCCc1cc(S(C)(=O)=NC(N)=O)cc2c(=O)c3cc(C(=O)O)ccc3oc12 (stereo not shown) [7-(N-carbamoyl-S-methylsulfonimidoyl)-5-(n-hexyl)-xanthone-2-carboxylic acid],0.008
4,CCCCCCc1cc(S(C)(=N)=O)cc2c(=O)c3cc(C(=O)O)ccc3oc12 (stereo not shown) [7-(S-methylsulfonimidoyl)-5-(n-hexyl)-xanthone-2-carboxylic acid],0.0028
5,CC(=O)N=S(C)(=O)c1ccc2oc3ccc(C(=O)O)cc3c(=O)c2c1 (stereo not shown) [7-(N-acetyl-S-methylsulfonimidoyl)-xanthone-2-carboxylic acid],0.065
6,CCCCCOc1cc(S(C)(=N)=O)cc2c(=O)c3cc(C(=O)O)ccc3oc12 (stereo not shown) [7-(S-methylsulfonimidoyl)-5-(n-pentyloxy)-xanthone-2-carboxylic acid],0.0035

# Same assay, conditions: male rats 180-220 g; intravenous, followed immediately by antigen/Evans blue challenge; anti-ovalbumin antiserum ID 3 days before; compounds used as tris(hydroxymethyl)methylamine salts
row,Structure (SMILES),ED50 (dose of drug giving 50% inhibition) [mg/kg]
1,CS(=N)(=O)c1ccc2oc3ccc(C(=O)O)cc3c(=O)c2c1 (stereo not shown) [7-(S-methylsulfonimidoyl)-xanthone-2-carboxylic acid],0.033
